System: Subjects With Active Crohn's Disease
Test: [HDL] determination, Study 5 (Crohn's disease)
Type: in vivo, human
Excerpt: Double-Blind, Randomized, Placebo-Controlled, Multi-Centre Study to Investigate the Efficacy and Safety of Compound 1 in Subjects With Active Crohn's Disease With Evidence of Mucosal Ulceration.
This is a double-blind, randomized, placebo-controlled, multi-centre Phase 2 study to investigate the efficacy and safety of Compound 1 administered once daily for the treatment of active CD with evidence of mucosal ulceration. The pharmacokinetics (including a PK substudy) and pharmacodynamics of Compound 1 and metabolite in CD will also be characterised.
A total of 180 eligible subjects will be randomized to receive Compound 1 or placebo in addition to their stable background treatment (eg, corticosteroids, aminosalicylates, or CD-related antibiotics). The study will consist of 2 parts, with total treatment duration of 20 weeks. Randomization in Part 1 will be stratified according the subject's previous anti-TNF exposure/response, CRP level at Screening, and oral corticosteroid use at visit Day −1.
After the first 10 weeks of treatment in Part 1, patients will be re-randomized for Part 2 as shown in the diagram below and will be stratified according to the subject's clinical response, previous anti-TNF exposure/response, and oral corticosteroid use at visit Day −1.
The following assays were conducted at Eurofins Global Central Laboratory, Bergschot 71, 4817 PA Breda, The Netherlands, and at Quest Diagnostics, Clinical Trials, Quest House, 125-135 Staines Road, Hounslow, Middlesex, TW3 3JB, United Kingdom. The assays for Study 5 were performed at BARC Europe, 3B, Industrie Park, Zwijnaarde, B-9052 Ghent, Belgium.
This assay relies on a homogeneous enzymatic colorimetric test. In the presence of magnesium ions, dextran sulfate selectively forms water-soluble complexes with LDL, VLDL and chylomicrons which are resistant to PEG-modified enzymes.
The cholesterol concentration of [HDL]-cholesterol is determined enzymatically by cholesterol esterase and cholesterol oxidase coupled with PEG to the amino groups (approx. 40%).
In the presence of peroxidase, the hydrogen peroxide generated reacts with 4-amino-antipyrine and Sodium N-(2-hydroxy-3-sulfopropyl)-3,5-dimethoxyaniline (HSDA) to form a purple-blue dye. The color intensity of this dye is directly proportional to the cholesterol concentration and is measured photometrically.
Human serum and plasma samples [HDL] determination was done on a Roche/Hitachi Cobas c 701/702 system which automatically calculate the analyte concentration of each sample. Samples containing precipitates are centrifuged before performing the assay.

[1] = 200 mg q.d. continued to week 20; week 2
[2] = 200 mg q.d. continued to week 20; week 4
[3] = 200 mg q.d. continued to week 20; week 6
[4] = 200 mg q.d. continued to week 20; week 10
[5] = 200 mg q.d. continued to week 20; week 12
[6] = 200 mg q.d. continued to week 20; week 16
[7] = 200 mg q.d. continued to week 20; week 20
[8] = 200 mg q.d. week 0 to 10, then 100 mg q.d. (N = 30), week 2
[9] = 200 mg q.d. week 0 to 10, then 100 mg q.d. (N = 30), week 4
[10] = 200 mg q.d. week 0 to 10, then 100 mg q.d. (N = 30), week 6
[11] = 200 mg q.d. week 0 to 10, then 100 mg q.d. (N = 30), week 10
[12] = 200 mg q.d. week 0 to 10, then 100 mg q.d. (N = 30), week 12
[13] = 200 mg q.d. week 0 to 10, then 100 mg q.d. (N = 30), week 16
[14] = 200 mg q.d. week 0 to 10, then 100 mg q.d. (N = 30), week 20
[15] = 200 mg q.d. week 0 to 10, then placebo (N = 23), week 2
[16] = 200 mg q.d. week 0 to 10, then placebo (N = 23), week 4
[17] = 200 mg q.d. week 0 to 10, then placebo (N = 23), week 6
[18] = 200 mg q.d. week 0 to 10, then placebo (N = 23), week 10
[19] = 200 mg q.d. week 0 to 10, then placebo (N = 23), week 12
[20] = 200 mg q.d. week 0 to 10, then placebo (N = 23), week 16
[21] = 200 mg q.d. week 0 to 10, then placebo (N = 23), week 20
[22] = 200 mg q.d. week 0 to 10, to 100 mg q.d. week 10 to 20; week 2

O=C(Nc1nc2cccc(-c3ccc(CN4CCS(=O)(=O)CC4)cc3)n2n1)C1CC1 [Compound 1, cyclopropanecarboxylic acid {5-[4-(1,1-dioxo-thiomorpholin-4-ylmethyl)-phenyl]-[1,2,4]triazolo[1,5-a]pyridin-2yl}-amide]
[HDL] Mean CFB - 10 weeks results (200 mg q.d. (N = 130), week 2): 0.222 mmol/L | [HDL] Median CFB - 10 weeks results (200 mg q.d. (N = 130), week 2): 0.210 mmol/L | [HDL] Mean CFB - 10 weeks results (200 mg q.d. (N = 130), week 4): 0.237 mmol/L | [HDL] Median CFB - 10 weeks results (200 mg q.d. (N = 130), week 4): 0.210 mmol/L | [HDL] Mean CFB - 10 weeks results (200 mg q.d. (N = 130), week 6): 0.243 mmol/L | [HDL] Median CFB - 10 weeks results (200 mg q.d. (N = 130), week 6): 0.250 mmol/L | [HDL] Mean CFB - 10 weeks results (200 mg q.d. (N = 130), week 10): 0.239 mmol/L | [HDL] Median CFB - 10 weeks results (200 mg q.d. (N = 130), week 10): 0.260 mmol/L | [HDL] Median CFB - 10 weeks results (200 mg q.d. (N = 130); week 2): 16.867% | [HDL] Median CFB - 10 weeks results (200 mg q.d. (N = 130); week 4): 15.333% | [HDL] Median CFB - 10 weeks results (200 mg q.d. (N = 130); week 6): 16.867% | [HDL] Median CFB - 10 weeks results (200 mg q.d. (N = 130); week 10): 15.789% | [HDL] Mean CFB - 20 weeks results [1]: 18.29% | [HDL] Median CFB - 10 weeks results [1]: 17.33% | [HDL] Mean CFB - 20 weeks results [2]: 15.66% | [HDL] Median CFB - 10 weeks results [2]: 9.91% | [HDL] Mean CFB - 20 weeks results [3]: 19.93% | [HDL] Median CFB - 10 weeks results [3]: 13.98% | [HDL] Mean CFB - 20 weeks results [4]: 17.97% | [HDL] Median CFB - 10 weeks results [4]: 12.50% | [HDL] Mean CFB - 20 weeks results [5]: 16.97% | [HDL] Median CFB - 10 weeks results [5]: 9.94% | [HDL] Mean CFB - 20 weeks results [6]: 13.90% | [HDL] Median CFB - 10 weeks results [6]: 12.22% | [HDL] Mean CFB - 20 weeks results [7]: 11.15% | [HDL] Median CFB - 10 weeks results [7]: 10.66% | [HDL] Mean CFB - 20 weeks results [8]: 0.24 mmol/L | [HDL] Median CFB - 20 weeks results [8]: 0.22 mmol/L | [HDL] Mean CFB - 20 weeks results [9]: 0.31 mmol/L | [HDL] Median CFB - 20 weeks results [9]: 0.22 mmol/L | [HDL] Mean CFB - 20 weeks results [10]: 0.33 mmol/L | [HDL] Median CFB - 20 weeks results [10]: 0.31 mmol/L | [HDL] Mean CFB - 20 weeks results [11]: 0.33 mmol/L | [HDL] Median CFB - 20 weeks results [11]: 0.26 mmol/L | [HDL] Mean CFB - 20 weeks results [12]: 0.17 mmol/L | [HDL] Median CFB - 20 weeks results [12]: 0.15 mmol/L | [HDL] Mean CFB - 20 weeks results [13]: 0.11 mmol/L | [HDL] Median CFB - 20 weeks results [13]: 0.03 mmol/L | [HDL] Mean CFB - 20 weeks results [14]: 0.18 mmol/L | [HDL] Median CFB - 20 weeks results [14]: 0.16 mmol/L | [HDL] Mean CFB - 20 weeks results [15]: 0.18 mmol/L | [HDL] Median CFB - 20 weeks results [15]: 0.18 mmol/L | [HDL] Mean CFB - 20 weeks results [16]: 0.30 mmol/L | [HDL] Median CFB - 20 weeks results [16]: 0.39 mmol/L | [HDL] Mean CFB - 20 weeks results [17]: 0.15 mmol/L | [HDL] Median CFB - 20 weeks results [17]: 0.16 mmol/L | [HDL] Mean CFB - 20 weeks results [18]: 0.16 mmol/L | [HDL] Median CFB - 20 weeks results [18]: 0.24 mmol/L | [HDL] Mean CFB - 20 weeks results [19]: -0.12 mmol/L | [HDL] Median CFB - 20 weeks results [19]: -0.03 mmol/L | [HDL] Mean CFB - 20 weeks results [20]: -0.18 mmol/L | [HDL] Median CFB - 20 weeks results [20]: -0.05 mmol/L | [HDL] Mean CFB - 20 weeks results [21]: -0.21 mmol/L | [HDL] Median CFB - 20 weeks results [21]: -0.08 mmol/L | [HDL] Mean CFB - 20 weeks results [22]: 20.28% | [HDL] Median CFB - 10 weeks results [22]: 17.11%

— US10376520B2, “Methods for the treatment of cardiovascular disorders” (Galapagos NV, priority 2015, dated 2019)
